According to patent publication US20150329498A1, “IRAK INHIBITORS AND USES THEREOF” (Nimbus Iris, Inc., priority 2014, published 2015):

Key:
Type in all cases: cell-based
[1] = test system: IFNα production in human whole blood; test: R848 induced IFNα production in human whole blood; conditions: 0.2 uM R848, 20 hours
Procedure: (§1) Compounds of the present invention were also studied in in vitro cytokine production assays. Exemplary protocols follow.
(§2) Human whole blood and hWBC assays: Human whole blood was diluted by combining whole blood with no serum RPMI medium at a ratio of 1:1. 180 ul/well of the diluted whole blood/well was added to a 96 well plate. For WBC assay 100,000 cells/well were seeded in a 96-well plate with a volume of 100 ul/well. To make the compound master plate 9 ul of 30 mM compound solution was added into the wells in the assigned rows, then serial solutions with 4x dilutions were made in DMSO. That is, 9 uL of 100% DMSO were added into each of the rest wells and 3 uL of compound solution was taken from the one-step higher concentration solution and mixed well with the DMSO. An intermediate compound dilution plate was made by mixing 4 uL of the compound solution from the compound master plate with 196 uL of no serum RPMI medium. hWBC or human whole blood was treated for 0.5 hour by adding 20 uL/well of the compound and the control solutions from the intermediate compound plate to the cell plate. 80 uL/well or 20 uL/well of stimulant were then added to the human whole blood or hWBC respectively. […] The supernatants were then collected and cytokine levels were measured with ELISA for TNFα (R&D Systems, #DY210) and IFNα (R&D Systems, #41100-2) per manufacturer's instruction.

[2] = test system: TNFα production in THP-1 cells; test: LPS induced TNFα production assay in THP-1 cells; conditions: Homo sapiens, 300 ng/mL LPS, measured at 5 hours
Procedure: Provided compounds were also assayed in an LPS (Lipopolysaccharide) or R848 (TLR-7 agonist) induced cytokine (TNFα and IL8) production assay in THP-1 cells, human white blood cells (hWBC), and human whole blood. The exemplary protocol for this assay in THP-1 cells was as follows below.
THP-1 cells from ATCC (TIB-202) were cultured in RPMI Medium 1640 (Invitrogen, Cat No. A10491-01), 10% fetal bovine serum (Invitrogen, Cat No. 10099141, Lot No. 8172882) containing 100 U/mL Penicillin, 100 μg/mL streptomycin (Invitrogen, Cat No. 15140-122), and 50 uM 2-Mercaptoethanol (Invitrogen, Cat No. 21985023). LPS-EK ultra pure (Invivogen, Cat No. tlrl-peklps) was used to induce IL8 and TNFα production, that was detected in the cell culture supernatant by IL8 HTRF kit (Cisbio, Cat No. 62IL8PEB) and TNFα HTRF kit (Cisbio, Cat No. 62TNFPEB), as per manufacturer instructions. Cells were cultured in 96 well assay plates at 100,000 cells per well, and compounds diluted in final 0.3% DMSO were pre-incubated with cells for 1 hour prior to stimulation with 300 ng/mL LPS. Cytokine production in cell supernatant was measured at 5 hours for TNFα production, and at 16 hours for IL8 production and assessment of cell viability.
The compound numbers correspond to the compound numbers in Table 1. Compounds having an activity designated as “A” provided an IC50≦0.5 μM; compounds having an activity designated as “B” provided an IC50 of 0.5-5.0 μM; compounds having an activity designated as “C” provided an IC50>5.0 μM. “NA” stands for “not assayed.”

[3] = test system: TNFα production in human white blood cells (hWBC); test: LPS induced TNFα production in hWBC; conditions: 1 ug/mL LPS, 20 hours
Procedure: as §1, §2

[4] = test system: TNFα production in human white blood cells (hWBC); test: R848 induced TNFα production in hWBC; conditions: 1 uM R848, 20 hours
Procedure: as §1, §2

[5] = test system: TNFα production in human whole blood; test: R848 induced TNFα production in human whole blood; conditions: 1 uM R848, 20 hours
Procedure: as §1, §2

| IC50 [1] [nM] | IC50 [2] [nM] | IC50 [3] [nM] | IC50 [4] [nM] | IC50 [5] [nM] | Structure (SMILES) |
| --- | --- | --- | --- | --- | --- |
| 250 to 1000 | ≤ 500 | 1000 to 10000 | ≤ 250 | ≤ 250 | N#Cc1ccc2ncnc(N[C@H]3CC[C@H](N4CCC5(CC4)CC5)CC3)c2c1 [Compound I-7, 4-(((1r,4r)-4-(6-azaspiro[2.5]octan-6-yl)cyclohexyl)amino)-quinazoline-6-carbonitrile] |
| 250 to 1000 | ≤ 500 | 250 to 1000 | ≤ 250 | 250 to 1000 | N#Cc1ccc2ncnc(N[C@H]3CC[C@H](N4CCOCC4)CC3)c2c1 [Compound I-3, 4-(((1r,4r)-4-morpholinocyclohexyl)amino)quinazoline-6-carbonitrile] |
